Measurements taken from paper PMC6497546 (Molecular cancer therapeutics, 2019).

Tested on: AR42J tumor
Assay: Combination efficacy study with 5-fluorouracil
Assay type: in vivo, mice
Details: 5-fluorouracil alone, 15mg/kg once per week for nine weeks; post cell injection

O=c1[nH]cc(F)c(=O)[nH]1 [5-fluorouracil]
median survival: 2.4 weeks
